A short description of the series: FBMN analysis of short peptides in small intestine contents and serum after oral DHG. The settings on record: for Peptide signal (feature intensity) in the small intestine, 30 min / Peptide signal (feature intensity) in the small intestine, 60 min / Peptide signal (feature intensity) in the small intestine, 120 min / Peptide signal (feature intensity) in the small intestine, 240 min: small intestine contents, C57 mice, FBMN feature intensity, peptides smaller than 690 Da; for Peptide signal (feature intensity) in the small intestine, 30 min: 30 min after oral DHG; for Peptide signal (feature intensity) in the small intestine, 60 min: 60 min after oral DHG; for Peptide signal (feature intensity) in the small intestine, 120 min: 120 min after oral DHG; for Peptide signal (feature intensity) in the small intestine, 240 min: 240 min after oral DHG.

Peptide text beside a SMILES is read from it. Some results are limits rather than exact numbers.

With `CC[C@H](C)[C@H](N)C(=O)N[C@@H](Cc1ccc(O)cc1)C(=O)O` [Ile-Tyr] (H-Ile-Tyr-OH), the “Peptide signal (feature intensity) in the small intestine, 30 min” value (shortened to “Peptide signal (feature intensity) … 30 min”) is 4.20E+05; the “Peptide signal (feature intensity) in the small intestine, 60 min” value (from here on “Peptide signal (feature intensity) … 60 min”) is listed as 8.21E+05; the “Peptide signal (feature intensity) in the small intestine, 120 min” value (“Peptide signal (feature intensity) … 120 min” for short) was 0.00E+00; the “Peptide signal (feature intensity) in the small intestine, 240 min” value (from here on “Peptide signal (feature intensity) … 240 min”) came to 0.00E+00.

Take `CCCC[C@H](NC(=O)[C@H](C)N)C(=O)O` [L-Alanyl-L-norleucine] (HELM PEPTIDE1{A.[Nle]}$$$$V2.0): the “Peptide signal (feature intensity) … 30 min” value was 1.73E+05; the “Peptide signal (feature intensity) … 60 min” value is 0.00E+00; the “Peptide signal (feature intensity) … 120 min” value is on record as 2.05E+05; the “Peptide signal (feature intensity) … 240 min” value was determined as 1.49E+05.

As to `CC(C)C[C@H](N)C(=O)N[C@@H](CCC(=O)O)C(=O)N[C@@H](CCCCN)C(=O)O` [Leu-Glu-Lys] (H-Leu-Glu-Lys-OH), the “Peptide signal (feature intensity) … 30 min” value turned out to be 0.00E+00; the “Peptide signal (feature intensity) … 60 min” value turned out to be 4.20E+05; the “Peptide signal (feature intensity) … 120 min” value is 0.00E+00; the “Peptide signal (feature intensity) … 240 min” value is on record as 9.49E+05.

Turning to `CC(C)C[C@H](N)C(=O)N[C@@H](CCC(=O)O)C(=O)O` [Leu-Glu] (H-Leu-Glu-OH), the “Peptide signal (feature intensity) … 30 min” value is reported as 7.88E+06; the “Peptide signal (feature intensity) … 60 min” value is reported as 7.70E+06; the “Peptide signal (feature intensity) … 120 min” value stood at 0.00E+00; the “Peptide signal (feature intensity) … 240 min” value is reported as 0.00E+00.

Consider `CC(C)C[C@H](NC(=O)CNC(=O)[C@@H](N)CC(C)C)C(=O)O` [Leu-Gly-Leu] (H-Leu-Gly-Leu-OH), for which the “Peptide signal (feature intensity) … 30 min” value was 2.40E+06; the “Peptide signal (feature intensity) … 60 min” value is on record as 6.61E+05; the “Peptide signal (feature intensity) … 120 min” value came to 0.00E+00; the “Peptide signal (feature intensity) … 240 min” value amounted to 4.40E+06.

As to `CC(C)CC(N)C(=O)NC(Cc1ccccc1)C(=O)O` (stereo not drawn) [Leu-Phe] (H-Leu-Phe-OH; configuration not given here), the “Peptide signal (feature intensity) … 30 min” value is reported as 6.52E+05; the “Peptide signal (feature intensity) … 60 min” value worked out at 9.44E+05; the “Peptide signal (feature intensity) … 120 min” value is on record as 8.51E+05; the “Peptide signal (feature intensity) … 240 min” value was 0.00E+00.

In the case of `CC(C)C[C@H](N)C(=O)N[C@H](C(=O)N[C@@H](CCCCN)C(=O)O)C(C)C` [Leu-Val-Lys] (H-Leu-Val-Lys-OH), the “Peptide signal (feature intensity) … 30 min” value was found to be 0.00E+00; the “Peptide signal (feature intensity) … 60 min” value turned out to be 3.40E+05; the “Peptide signal (feature intensity) … 120 min” value came out at 8.97E+05; the “Peptide signal (feature intensity) … 240 min” value is reported as 2.22E+06.

As to `CC(C)CC(N)C(=O)NC(C(=O)O)C(C)C` (stereo not drawn) [Leu-Val] (H-Leu-Val-OH; configuration not given here), the “Peptide signal (feature intensity) … 30 min” value was found to be 4.22E+06; the “Peptide signal (feature intensity) … 60 min” value stood at 7.59E+06; the “Peptide signal (feature intensity) … 120 min” value is on record as 0.00E+00; the “Peptide signal (feature intensity) … 240 min” value stood at 0.00E+00.

Turning to `CC(C)C[C@H](N)C(=O)N[C@@H](C)C(=O)O` [Leu-ala] (H-Leu-Ala-OH), the “Peptide signal (feature intensity) … 30 min” value is 1.85E+06; the “Peptide signal (feature intensity) … 60 min” value is listed as 1.64E+06; the “Peptide signal (feature intensity) … 120 min” value was 0.00E+00; the “Peptide signal (feature intensity) … 240 min” value came out at 0.00E+00.

For `CSCCC(N)C(=O)NC(CC(C)C)C(=O)O` (stereo not drawn) [Met-Leu] (H-Met-Leu-OH; configuration not given here), the “Peptide signal (feature intensity) … 30 min” value is given as 0.00E+00; the “Peptide signal (feature intensity) … 60 min” value amounted to 0.00E+00; the “Peptide signal (feature intensity) … 120 min” value is on record as 4.03E+05; the “Peptide signal (feature intensity) … 240 min” value is 3.59E+05.

Take `CSCC[C@H](N)C(=O)N[C@@H](Cc1ccccc1)C(=O)O` [Met-Phe] (H-Met-Phe-OH): the “Peptide signal (feature intensity) … 30 min” value was 0.00E+00; the “Peptide signal (feature intensity) … 60 min” value was determined as 0.00E+00; the “Peptide signal (feature intensity) … 120 min” value stood at 5.87E+05; the “Peptide signal (feature intensity) … 240 min” value is 2.12E+06.

For `CSCCC(N)C(=O)NC(C(=O)O)C(C)C` (stereo not drawn) [Met-Val] (H-Met-Val-OH; configuration not given here), the “Peptide signal (feature intensity) … 30 min” value is on record as 0.00E+00; the “Peptide signal (feature intensity) … 60 min” value is recorded as 0.00E+00; the “Peptide signal (feature intensity) … 120 min” value is 5.98E+05; the “Peptide signal (feature intensity) … 240 min” value was determined as 1.03E+06.

As for `CSCC[C@H](N)C(=O)O` [Methionine], the “Peptide signal (feature intensity) … 30 min” value came out at 0.00E+00; the “Peptide signal (feature intensity) … 60 min” value was found to be 0.00E+00; the “Peptide signal (feature intensity) … 120 min” value came to 1.12E+05; the “Peptide signal (feature intensity) … 240 min” value is listed as 2.58E+05.

As for `NC(=O)CC[C@H](NC(=O)[C@@H](N)Cc1ccccc1)C(=O)O` [Phe-Gln], the “Peptide signal (feature intensity) … 30 min” value was determined as 0.00E+00; the “Peptide signal (feature intensity) … 60 min” value turned out to be 1.71E+05; the “Peptide signal (feature intensity) … 120 min” value is given as 3.17E+05; the “Peptide signal (feature intensity) … 240 min” value worked out at 2.35E+05.

On to `N[C@@H](Cc1ccccc1)C(=O)N[C@@H](CCC(=O)O)C(=O)O` [Phe-Glu] (H-Phe-Glu-OH), for which the “Peptide signal (feature intensity) … 30 min” value turned out to be 1.31E+07; the “Peptide signal (feature intensity) … 60 min” value worked out at 3.77E+06; the “Peptide signal (feature intensity) … 120 min” value was found to be 0.00E+00; the “Peptide signal (feature intensity) … 240 min” value amounted to 0.00E+00.

`CC[C@H](C)[C@H](NC(=O)[C@@H](N)Cc1ccccc1)C(=O)N[C@@H](CCCCN)C(=O)O` [Phe-Ile-Lys] (H-Phe-Ile-Lys-OH): the “Peptide signal (feature intensity) … 30 min” value stood at 0.00E+00; the “Peptide signal (feature intensity) … 60 min” value was determined as 1.05E+05; the “Peptide signal (feature intensity) … 120 min” value was found to be 8.61E+05; the “Peptide signal (feature intensity) … 240 min” value is given as 7.83E+05.

For `CC(C)C[C@H](NC(=O)[C@@H](N)Cc1ccccc1)C(=O)N[C@@H](CCCCN)C(=O)O` [Phe-Leu-Lys] (H-Phe-Leu-Lys-OH), the “Peptide signal (feature intensity) … 30 min” value was 0.00E+00; the “Peptide signal (feature intensity) … 60 min” value is reported as 4.25E+05; the “Peptide signal (feature intensity) … 120 min” value came to 0.00E+00; the “Peptide signal (feature intensity) … 240 min” value turned out to be 8.08E+05.

Consider `CC(C)CC(NC(=O)C(N)Cc1ccccc1)C(=O)O` (stereo not drawn) [Phe-Leu] (H-Phe-Leu-OH; configuration not given here), for which the “Peptide signal (feature intensity) … 30 min” value amounted to 2.64E+06; the “Peptide signal (feature intensity) … 60 min” value is listed as 2.44E+06; the “Peptide signal (feature intensity) … 120 min” value is on record as 0.00E+00; the “Peptide signal (feature intensity) … 240 min” value amounted to 0.00E+00. Further, under “serum, time points 0.5-4 h after oral DHG”, the “time detected in serum (FBMN)” value was at least 4 h.

For `NC(Cc1ccccc1)C(=O)N1CCCC1C(=O)O` (stereo not drawn) [Phe-Pro] (H-Phe-Pro-OH; configuration not given here), the “Peptide signal (feature intensity) … 30 min” value was 1.25E+06; the “Peptide signal (feature intensity) … 60 min” value is listed as 7.11E+05; the “Peptide signal (feature intensity) … 120 min” value is reported as 1.63E+06; the “Peptide signal (feature intensity) … 240 min” value worked out at 3.02E+06.

As to `C[C@@H](O)[C@H](NC(=O)[C@@H](N)Cc1ccccc1)C(=O)O` [Phe-Thr], the “Peptide signal (feature intensity) … 30 min” value was 4.05E+04; the “Peptide signal (feature intensity) … 60 min” value is reported as 6.53E+03; the “Peptide signal (feature intensity) … 120 min” value is reported as 0.00E+00; the “Peptide signal (feature intensity) … 240 min” value stood at 0.00E+00.

For the molecule `NC(Cc1ccccc1)C(=O)NC(Cc1ccc(O)cc1)C(=O)O` (stereo not drawn) [Phe-Tyr] (H-Phe-Tyr-OH; configuration not given here), the “Peptide signal (feature intensity) … 30 min” value was determined as 4.42E+05; the “Peptide signal (feature intensity) … 60 min” value stood at 1.79E+06; the “Peptide signal (feature intensity) … 120 min” value is listed as 8.30E+05; the “Peptide signal (feature intensity) … 240 min” value is reported as 0.00E+00.

Take `CC(C)C(NC(=O)C(N)Cc1ccccc1)C(=O)O` (stereo not drawn) [Phe-Val] (H-Phe-Val-OH; configuration not given here): the “Peptide signal (feature intensity) … 30 min” value is given as 1.12E+06; the “Peptide signal (feature intensity) … 60 min” value stood at 1.09E+06; the “Peptide signal (feature intensity) … 120 min” value is 0.00E+00; the “Peptide signal (feature intensity) … 240 min” value was found to be 0.00E+00.

`CC(C)CC(NC(=O)C1CCCN1)C(=O)O` (stereo not drawn) [Pro-Leu] (H-Pro-Leu-OH; configuration not given here): the “Peptide signal (feature intensity) … 30 min” value turned out to be 5.47E+07; the “Peptide signal (feature intensity) … 60 min” value stood at 1.43E+07; the “Peptide signal (feature intensity) … 120 min” value amounted to 0.00E+00; the “Peptide signal (feature intensity) … 240 min” value is 0.00E+00.

For `O=C(O)C(Cc1ccccc1)NC(=O)C1CCCN1` (stereo not drawn) [Pro-Phe] (H-Pro-Phe-OH; configuration not given here), the “Peptide signal (feature intensity) … 30 min” value is 9.57E+05; the “Peptide signal (feature intensity) … 60 min” value was 9.73E+05; the “Peptide signal (feature intensity) … 120 min” value turned out to be 1.22E+06; the “Peptide signal (feature intensity) … 240 min” value was found to be 0.00E+00.

Source of the values: publication PMC12616683, “In Vivo Atlas of Neuroprotective Cyclic Dipeptides Derived from Food Gelatin Using Peptidomics and Feature-Based Molecular Networking” (Journal of Agricultural and Food Chemistry, 2025).
